Results taken from patent US20250099407A1, “2-AMINO BENZOPHENONE DERIVATIVES FOR TARGETED FERROPTOSIS INDUCTION IN CANCER THERAPY” (INDIAN INSTITUTE OF TECHNOLOGY KANPUR, priority 2023, published 2025).
Like-named read-outs stand apart in the source and are kept apart here.

What was measured:
Assay type in all cases: cell-based
MCF7 = assay: Cell viability, CellTiter-Glo assay, MCF7; conditions: Homo sapiens
Protocol: (§1) The viability of screened cancer cells was recorded using a luminescence-based CellTiter-Glo® assay for the ATP quantification. The screening concentration of the molecule ranged from 100/10 μM to 45/4.5 nM with an 8-point-3-fold dilution series in DMEM media (>0.1% DMSO as control). Each experiment was conducted in more than two biological replicates with three technical replicates. The error bar is a representation of standard deviation among the technical replicates.
as §1, with “IITK3002” for “the molecule”, “10” for “100/10”, “4.5” for “45/4.5”
(§2) a. […] In parallel, we have also synthesized the bromoacetamide (IITK3002) version of the lead molecules which is slightly more reactive with thiol nucleophiles when compared to chlorooacetamide warheads as depicted in FIG. 13. […] In addition, we also evaluated the molecules' antiproliferative potency against a panel of twelve different cancer phenotypes. […]

HCT116 = assay: Cell viability, CellTiter-Glo assay, HCT116; conditions: Homo sapiens, HCT-116
Protocol: as §1
as §1, with “IITK3002” for “the molecule”, “10” for “100/10”, “4.5” for “45/4.5”
as §2

MDA-MB-231 = assay: Cell viability, CellTiter-Glo assay, MDA-MB-231; conditions: Homo sapiens; MDA-MB-231, cell viability
Protocol: as §1
as §1, with “IITK3002” for “the molecule”, “10” for “100/10”, “4.5” for “45/4.5”
as §2

Jurkat J6 = assay: Cell viability, CellTiter-Glo assay, Jurkat J6; conditions: Homo sapiens
Protocol: as §1
as §1, with “IITK3002” for “the molecule”, “10” for “100/10”, “4.5” for “45/4.5”
as §2

RPMI 8226 = assay: Cell viability, CellTiter-Glo assay, RPMI 8226; conditions: Homo sapiens; RPMI 8226, cell viability
Protocol: as §1
as §1, with “IITK3002” for “the molecule”, “10” for “100/10”, “4.5” for “45/4.5”
as §2

U87MG = assay: Cell viability, CellTiter-Glo assay, U87MG; conditions: Homo sapiens, U-87 MG
Protocol: as §1
as §1, with “IITK3002” for “the molecule”, “10” for “100/10”, “4.5” for “45/4.5”
as §2

4T1 = assay: Cell viability, CellTiter-Glo assay, 4T1; conditions: Mus musculus; 4T1, cell viability
Protocol: as §1
as §1, with “IITK3002” for “the molecule”, “10” for “100/10”, “4.5” for “45/4.5”
as §2

cancer cells = assay: Antiproliferative potency against cancer cells / panel of cancer cell lines
Protocol: as §1
as §1, with “IITK3002” for “the molecule”, “10” for “100/10”, “4.5” for “45/4.5”
a. […] In parallel, we have also synthesized the bromoacetamide (IITK3002) version of the lead molecules which is slightly more reactive with thiol nucleophiles when compared to chlorooacetamide warheads as depicted in FIG. 13. […] In addition, we also evaluated the molecules' antiproliferative potency against a panel of twelve different cancer phenotypes. The set of cancer cell lines included liver, breast, colon, myeloma, bone, blood, skin, brain and prostate lineages (FIG. 2, 3, Table 1).

A375 = assay: Cell viability, CellTiter-Glo assay, A375; conditions: Homo sapiens, A-375
Protocol: as §1
as §1, with “IITK3002” for “the molecule”, “10” for “100/10”, “4.5” for “45/4.5”
as §2

4T1 cells = assay: Combination cell viability experiments in 4T1 cells; conditions: 4T1, Ferrostain-1 10 μM
Protocol: FIG. 14 depicts a combination experiment indicates the involvement of thiol modulation by IITK3001/IITK3002 on the viability of Huh-7 and 4T1 cells, in accordance with an embodiment of the present invention. The viability of screened cancer cells was recorded using a luminescence-based CellTiter-Glo® assay for the ATP quantification. The screening concentration of (a) IITK3001 and (b) IITK3002 ranged from 10 uM to 4.5 nM with an 8-point-3-fold dilution series in DMEM medium (>0.1% DMSO as control). For combination experiments, 500 μM of NAC or glutathione and 25 μM of BSO were used. Each experiment was conducted in more than two biological replicates with three technical replicates. The error bar is a representation of standard deviation among the technical replicates.
FIG. 17 depicts IITK3001-mediated ferroptosis induction as a cell death mechanism in 4T1 cells is recorded, in accordance with an embodiment of the present invention. The screening concentration of (a) IITK3001 and (b) IITK3002 ranged from 10 μM to 4.5 nM with an 8-point-3-fold dilution series. […]
FIG. 19 depicts IITK3001-mediated ferroptosis induction as a cell death mechanism in 4T1 cells is recorded, in accordance with an embodiment of the present invention. […]

[1] = cell line not stated, read-out: EC50, inhibition of cancer cell proliferation
[2] = range over twelve different cancer phenotypes, read-out: EC50 concentration range across panel of twelve cancer cell lines

EC50 (MCF7) [nM]	EC50 (HCT116) [nM]	EC50 (MDA-MB-231) [nM]	EC50 (Jurkat J6) [nM]	EC50 (U87MG) [nM]	EC50 (4T1) [nM]	EC50 (cancer cells; [1]) [nM]	EC50 (cancer cells; [2]) [nM]	EC50 (A375) [nM]	SMILES	EC50 (RPMI 8226) [nM]	effect of Fer-1 combination in 4T1 cells (4T1 cells)
20	37	26	37	80	66	3	20 to 132		CN(C(=O)CBr)c1ccccc1C(=O)c1ccccc1 [IITK3002, N-(2-benzoylphenyl)-2-bromo-N-methylacetamide]	39	
312	168	184	222	402	499	70	132 to 490	352	CN(C(=O)CCl)c1ccccc1C(=O)c1ccccc1 [IITK3001, N-(2-benzoylphenyl)-2-chloro-N-methylacetamide]	133	negligible
